# From patent US9873670B2, “Arylquinoline and analog compounds and use thereof to treat cancer” (UNIVERSITY OF KENTUCKY RESEARCH FOUNDATION, priority 2013, dated 2018)
# What was measured:
# DU145 cells = assay: Apoptosis, DU145 cells; assay type: cell-based, human; conditions: 500 nM
# Description: (§1) See Hebbar, N., Wang, C. & Rangnekar, V. M. J Cell Phys 227, 3715-3721 (2012) and Shrestha-Bhattarai, T., Hebbar, N. & Rangnekar, V. M. Cancer Cell 24, 3-5 (2013). A total of three independent experiments were performed; and approximately 500 cells were scored in each experiment for apoptosis under a fluorescent microscope. Cell surface GRP78 expression on the cancer cell surface was quantified by FACS analysis in the Flow Cytometry Shared Resource Facility, Markey Cancer Center as previously described. See Hebbar, N., Wang, C. & Rangnekar, V. M. J Cell Phys 227, 3715-3721 (2012).
# PC-3 cells = assay: Apoptosis, PC-3 cells; assay type: cell-based, human; conditions: 500 nM
# Description: as §1
# cell surface GRP78 = assay: Paracrine apoptosis by CM from treated MEFs with GRP78 neutralizing antibody; assay type: cell-based; conditions: CM from Par-4+/+ MEFs treated with 500 nM
# Description: FIGS. 4A and 4B are bar graphs illustrating percent cell surface GRP-78 expression and apoposis activity for an arylquinoline of the present disclosure. FIG. 4A is a bar graph showing cell surface GRP78 levels in cancer cells treated with CM from MEFs exposed to Arylquin 1. Par-4+/+ MEFs or Par-4−/− MEFs were treated with vehicle or Arylquin 1 (500 nM) for 24 h. The CM from these MEFs was incubated with the indicated cancer cells for 24 h. The cancer cells were then subjected to FACS analysis for cell surface GRP78 expression. Data shown represent mean values of three experiments±s.d. Asterisks (**) or (*) indicate statistical significance (P<0.0001) or (P<0.001), respectively, based on two-way ANOVA with data normality and equality of variance assumptions. […] After 24 h, the cancer cells were scored for apoptosis by ICC for active caspase-3. […]
# as §1, with “See Hebbar, N., Wang, C. & Rangnekar, V. M. J Cell Phys 227, 3715-3721 (2012).” left out
# [1] = tested on: normal cells (MEFs, HELs, HBEC, PrE, PrS); assay: Apoptosis by ICC for active caspase-3, normal cells; assay type: cell-based, human, mouse
# Description: (§2) Normal cells (MEFs, HELs, HBEC, PrE, prostate stromal cells PrS) or lung cancer cells (human A549 and H460, mouse LLC1 and KP7B) and prostate cancer cells (PC-3 MM2, DU145, LNCaP) were treated with the indicated amounts (0.5, 1 and 10 μM) of Arylquin 1 or vehicle (V) for 24 h, and apoptosis was determined by ICC for active caspase-3. Data shown represent mean values from three independent experiments±s.d. Asterisks (**) or (*) indicate statistical significance (P<0.0001) or (P<0.001), respectively, by the Student t test.
# as §1
# vimentin = assay: Pull-down with biotinylated arylquin to identify target protein; assay type: binding, mouse (MEFs), human (HEL); conditions: lysates of MEFs and HEL cells, biotinylated analog
# Description: Pull down experiments: To identify the target protein for compound Arylquin 1, pull-down experiments were performed as described previously. See Bargagna-Mohan, P., et al. J Biol Chem 285, 7657-7669 (2010). MEFs or HEL cells (grown to confluence in 15 cm plates) were lysed in […] lysis buffer (40 mM Hepes, pH 7.8; 140 mM NaCl; 10 mM NaF; 10% Glycerol, 1 mM EDTA; 1% Triton 100), and the lysates were pre-cleared at 4° C. for 1 h with 100 μL streptavidin beads (Novagen, Strep-Tactin Superflow Agarose). Binding reactions were performed by incubating the pre-cleared cell lysates with 50 μL beads±25 μg of biotinylated Arylquin 1 at 4° C. for 2 h. The beads were then washed four times with buffer (40 mM Hepes, pH 7.8; 140 mM NaCl; 10 mM NaF; 10% Glycerol, 1 mM EDTA), and bound protein was eluted with 50 μL of 2.5 mM Biotin/PBS. Eluted proteins were resolved by SDS-PAGE and Coomassie blue staining.
# [2] = tested on: diverse cancer cells (lung cancer A549, H460, LLC1, KP7B; prostate cancer PC-3 MM2, DU145, LNCaP); assay: Apoptosis by ICC for active caspase-3, cancer cells; assay type: cell-based, human, mouse
# Description: as §2, §1
# PC-3MM2 = assay: Apoptosis, PC-3MM2 cells; assay type: cell-based, human; conditions: 500 nM
# Description: as §1
# vimentin-deficient cells = assay: Par-4 secretion from vimentin-deficient cells; assay type: cell-based
compound,measurement,setting,value
"CN(C)c1ccc2cc(-c3ccccc3F)c(N)nc2c1 [Arylquin 1, 3-(2-fluorophenyl)-N^7,N^7-dimethylquinoline-2,7-diamine]",apoptosis,DU145 cells,not in LNCaP or DU145 cells
same,apoptosis,PC-3 cells,induced apoptosis
same,mediation of paracrine apoptosis,cell surface GRP78,mediated via cell surface GRP78
same,direct apoptosis,[1]; 500 nM,did not directly induce apoptosis
same,apoptosis,"[1]; 0.5, 1 and 10 μM, 24 h",not in normal cells
same,target protein identified by pull-down,vimentin,Vimentin was the primary target
same,direct apoptosis,[2]; 500 nM,did not directly induce apoptosis
same,apoptosis,"[2]; 0.5, 1 and 10 μM, 24 h",induced the dose-dependent apoptosis in cancer cells
same,apoptosis,PC-3MM2,induced apoptosis
same,Par-4 secretion,vimentin-deficient cells,did not further induce Par-4 secretion
